Assay results as given in patent publication US6500866B1, “1-(adamantyl)amidines and their use in the treatment of conditions generally associated with abnormalities in glutamatergic transmission” (Vernalis Research Limited, priority 1997, dated 2002).
Structures can show the parent of a compound that is named as a salt.

Columns and labels:
[1] = target: PCP site of the NMDA receptor (cortical); assay: [3H]-MK-801 binding, PCP site of NMDA receptor, rat cortical membranes; details: rat cortex membranes, [3H]-MK-801 5 nM, 10 μM glutamate, 10 μM glycine
Text: (§1) The NMDA receptor contains several distinct binding domains that can regulate opening of the cationic channel. The phencyclidine (PCP) site of the NMDA receptor can be radiolabeled with [^3H]-(+)-5-methyl-10,11-dihydro-5H-dibenzo[a,d]cyclohepten-5,10-imine hydrogen maleate, [^3H-MK-801]. The following describes the procedure for determining the affinity of compounds for the PCP site in rat cortical or cerebellar membranes.
(§2) Frozen rat cortex or cerebellum, homogenized in 10 volumes of ice cold 0.32 M. sucrose is centrifuged at 1,000 g for 12 min and the supernatant stored on ice whilst the pellet was resuspended, rehomogenized and recentrifuged twice more. The three final supernatants were pooled and centrifuged at 30,000 g for 40 min at 4° C. to yield P2 pellets. These were resuspended in ice-cold distilled water, and centrifuged at 30,000 g for 50 min at 4° C. Following three further washes in distilled water, the P2 pellets were stored at −20° C. for at least 18 h. On the day of the assay, membrane pellets were thawed at room temperature, resuspended in ice-cold distilled water and centrifuged at 30,000 g for 20 min. The pellets were resuspended in 50 mM tris-HCl (pH:7.4) and recentrifuged twice more before being resuspended in tris-HCl for immediate use in the assay. Binding assays were performed at equilibrium in a total volume of 200 μl, containing, [^3H]-MK-801 (5 nM final conc.), 10 μM glutamate, 10 μM glycine, 160 μl of membrane preparation and additional drugs where appropriate. Non-specific binding was determined using MK-801 (10 μM). The assay was incubated for 120 min at room temperature. The incubation was terminated by rapid filtration through Whatman GF/B filters (pre-soaked in 0.1% PEI solution). The assay tubes and filters were washed five times with 1 ml of ice cold assay buffer. The filters were placed in poly-Q mini vials with approximately 5 ml of scintillation fluid. The vials are then shaken and left for at least 8 hours before being counted on a liquid scintillation counter. To determine the free ligand concentration 3 aliquots (20 μl) of the [^3H]-MK-801 working solution were also counted. Concentration response data for drugs was analysed using a 4 parameter equation fitted by non linear regression. This yielded the half maximally effective drug concentration (IC50) and Hill coefficient.

[2] = target: T1, PCP site of the NMDA receptor (cerebellar); assay: [3H]-MK-801 binding, PCP site of NMDA receptor, rat cerebellar membranes; details: rat cerebellum membranes, [3H]-MK-801 5 nM, 10 μM glutamate, 10 μM glycine
T1 construct: IC50(μM) Cerebellum; other: rat cerebellum membranes, [3H]-MK-801 5 nM, 10 μM glutamate, 10 μM glycine
Text: as §1, §2

[3] = tested on: PCP site of the NMDA receptor (cerebellar); assay: as above; details: IC50 cortex / IC50 cerebellum
Text: as §1, §2

| Structure (SMILES) | melting point | IC50 [1] [µM] | IC50 [2] [µM] | Ratio of cortical to cerebellar binding affinity [3] |
| --- | --- | --- | --- | --- |
| Cl.N=C(N)C12CC3CC(C1)CC(c1ccc([N+](=O)[O-])cc1)(C3)C2 [Example 14, 3-(4-Nitrophenyl)-1-adamantanecarboximidamide hydrochloride] | – | 406 | 234 | 1.7 |
| N=C(N)CC(c1ccccc1)C12CC3CC(CC(C3)C1)C2 (centres unmarked) [Example 18, 3-(1-Adamantyl)-3-phenylpropanimidamide hydrochloride] | – | 27 | – | – |
| Cl.N=C(N)C(Cc1ccccc1)C12CC3CC(CC(C3)C1)C2 (centres unmarked) [Example 16, 2-(1-Adamantyl)-3-phenylpropanimidamide hydrochloride] | – | 52 | 27 | 1.9 |
| CC12CC3CC(C)(C1)CC(CC(=N)N)(C3)C2 (as salt: hydrochloride) [Example 5, 3,5-Dimethyl-1-adamantaneacetiniidamide hydrochloride] | 252 to 253 °C | – | – | – |
| CC12CC3(C)CC(C)(C1)CC(C(=N)N)(C2)C3.Cl [Example 13, 3,5,7-Trimethyl-1-adamantanecarboximidamide hydrochloride] | – | 43 | 18 | 2.4 |
| CC12CC3CC(C1)CC(C(=N)N)(C3)C2.Cl [Example 12, 3-Methyl-1-adamantanecarboximidamide hydrochloride] | – | 96 | 36 | 2.7 |
| CC12CC3CC(C)(C1)CC(CC(=N)N)(C3)C2 [Example 5, 3,5-Dimethyl-1-adamantaneacetiniidamide hydrochloride] | – | 82 | 56 | 1.5 |
| N=C(NCc1ccccc1)C12CC3CC(CC(C3)C1)C2 (as salt: hydrochloride) [Example 9, N-Benzyl-1-adamantanecarboximidamide hydrochloride] | 242 to 244 °C | – | – | – |

More lines, main results first:

| melting point | Structure (SMILES) | IC50 [1] [µM] | IC50 [2] [µM] | Ratio of cortical to cerebellar binding affinity [3] |
| --- | --- | --- | --- | --- |
| 246 to 248 °C | CC12CC3CC(C)(C1)CC(CCC(=N)N)(C3)C2 (as salt: hydrochloride) [Example 11, 3-(3,5-Dimethyl-1-adamantyl)propanimidamide hydrochloride] | – | – | – |
| 215 to 216 °C | N=C(N)C12CC3CC(CC(Cl)(C3)C1)C2 (as salt: hydrochloride) [Example 2, 3-Chloro-1-adamantanecarboximidamide hydrochloride] | – | – | – |
| 222 to 224 °C | C=CCNC(=N)C12CC3CC(C)(CC(C)(C3)C1)C2 (as salt: hydrochloride) [Example 6, N-Allyl-3,5-dimethyl-1-adamantanecarboximidamide hydrochloride] | – | – | – |
| 315 °C (dec.) | CCNC(=N)C12CC3CC(CC(C3)C1)C2 (as salt: hydrochloride) [Example 8, N-Ethyl-1-adamantanecarboximidainide hydrochloride] | – | – | – |
| 210 to 212 °C | CCC12CC3CC(C1)CC(C(=N)N)(C3)C2 (as salt: hydrochloride) [Example 4, 3-Ethyl-1-adamantanecarboximidamide hydrochloride] | – | – | – |
| 293 °C (dec.) | CN(C)CCNC(=N)C12CC3CC(CC(C3)C1)C2 (as salt: hydrochloride) [Example 10, N-(2-Dimethylaminoethyl)-1-adamantanecarboximidamide dihydrochloride] | – | – | – |
| 252 to 254 °C | C=CCNC(=N)C12CC3CC(CC(C3)C1)C2 (as salt: hydrochloride) [Example 7, N-Allyl-1-adamantanecarboximidamide hydrochloride] | – | – | – |
| 221 to 223 °C | N=C(N)C12CC3CC(CC(Br)(C3)C1)C2 (as salt: hydrochloride) [Example 3, 3-Bromo-1-adamantanecarboximidamide hydrochloride] | – | – | – |
